Legend:
[1] = tested on: EAE (experimental autoimmune encephalomyelitis) in C57BL/6 mice; test: Prevention of EAE by pre-immunization with MOG peptide; format: in vivo; details: four sc immunizations (50 μg) before disease induction with MOG 35-55
Method: MOG contains a sequence which binds to CD1d and activates NKT cells. Thus, peptide of sequence PHFLRVPCWKI (SEQ ID NO: 10) is produced by synthesis and a thioreductase-containing peptide of sequence CHGCGGFLRVPCWKI (peptide of SEQ ID NO: 6, in which the thioreductase motif is underlined and a linker of 2 glycines between the motif and the CD1d-binding motif).
Groups of C57BL/6 mice are immunized four times subcutaneously (50 μg) with peptide of SEQ ID6 or, as a control, with peptide in natural sequence. Ten days after the last immunization, all mice, including a group of naive, non-immunized animals, are induced into disease by subcutaneous injection of 100 μg MOG 35-55 peptide/400 μg Mycobacterium butyricum in CFA and ip injection of 300 ng Bordetella pertussis in NaCl. At day +2, a second injection of B. pertussis is given.
Signs of EAE are followed over time.

[2] = tested on: Factor VIII specific CD4+ T cells; test: Activation (IL-4, IFN-gamma production) of Factor VIII specific CD4+ T cells from mice immunized with peptide, then injected with human factor VIII; format: in vivo, BALB/c Factor VIII KO mice; details: mice immunized 4 times with 50 μg peptide vs control group without peptide; spleen CD4+ T cells restimulated in vitro
Method: BALB/c Factor VIII KO mice (group A) were immunized 4 times at 1 week interval with 50 μg of peptide 2196, which contains a CD1d-restricted NKT cell epitope and a C-XX-C (SEQ ID NO: 14) thioreductase motif within flanking residues (SEQ ID NO: 1).
Human factor VIII was then injected by the subcutaneous route using 10 IU per injection on 5 occasions separated by one week. Ten days after the last immunization the mice were sacrificed and spleen CD4+ T cells were prepared by magnetic cell sorting. Such cells were stimulated twice with the immunizing peptide and FVIII in vitro before assessing their activation state as measured by the production of IL-4 and IFN-gamma. […] The results (FIG. 1) show a 10-fold reduction of IL-4 production by Factor VIII specific CD4+ T cells obtained from mice immunized with the peptide as compared to the control group, and a 7-fold reduction in the production of IFN-gamma. Results are shown as means+SEM.

[3] = tested on: EG7 tumor cells; test: Apoptosis of EG7 tumor cells by CD4+ NKT cell lines from peptide-immunized mice (Annexin V / 7-AAD); format: cell-based, mouse (C57BL/6, H-2b); details: EG7 cells cultured 18 h at ratio 1/1 with NKT cell lines from mice immunized with the peptide
Method: C57BL/6 mice (n=6) were immunized by four subcutaneous injections of 50 μg of peptide of SEQ ID NO: 3 in alum carried out at one-week interval.
Such peptide contains a CD1d-restricted NKT cell epitope derived from ovalbumin and a thioreductase motif in flanking residues. A control group (n=6) of mice received physiological serum in alum instead of peptide. Ten days after the last immunization the mice were sacrificed and spleen CD4+ T cells were prepared by magnetic cell sorting. Such cells were stimulated twice with the immunizing peptide in vitro before assessing their activation state as measured by the production of IL-4 and IFN-gamma.
CD4+ NKT cell lines were then assayed in vitro for their capacity to kill EG7 tumor cells. EG7 tumor cells (H-2b) are derived from a thymoma transduced with an ova construct. A CD1d restricted ova epitope is presented by such cells, which is known to be insufficient to trigger NKT activation and tumor cell killing.
EG7 cells were labeled at membrane level with 1 μM DiOC18 (3,3′ dioctadecycloxacarbocyanine perchlorate from Invitrogen). […] After 18 h, cells were harvested and stained for Annexin V and 7-AAD following manufacturer's instructions (Apoptosis Detection kit; BD Biosciences) and analysed on a FACSCantoll flow cytometer (BD Biosciences).

[4] = tested on: Der p I induced asthma in BALB/c mice; test: Prevention of Der p I induced allergic asthma by peptide immunization; format: in vivo; details: 4 injections of 50 μg peptide; Der p I nasal instillation 10 days after last immunization
Excerpt: Allergens from the house dust mite, D. pteronyssinus, are frequently involved in allergic asthma. Der p I is the main allergen of D. pteronyssinus. The sequence of Der p I contains a CD1d binding motif corresponding to amino acid sequence 38 to 44. A peptide of sequence WAFSGVAATES (SEQ ID NO: 12) is produced by synthesis as well as its counterpart containing a thioreductase motif Thus, peptide of CGPCGGFSGVAATES (SEQ ID NO: 8) contains a thioreductase motif (underlined) and a linker of 2 glycines between the motif and the CD1d-binding motif.
Allergic asthma can be induced in BALB/c mice by nasal instillations of 100 μg Der p I administered on 3 consecutive days. Asthma is characterized by bronchial hyperreactivity and attraction of eosinophil infiltrates into the lung.
BALB/c mice are immunized by 4 injections of 50 μg of peptides of either SEQ ID8 or peptide in natural sequence as a control. Der p I is administered by nasal instillation 10 days after the last immunization.

[5] = tested on: BALB/c-derived ALK+ tumor cell line (VAC); test: Killing of VAC ALK+ tumor cells by NKT cells stimulated with ALK peptide (Annexin-V binding by FACS); format: cell-based, BALB/c mice; details: VAC cells co-cultured with BALB/c NKT cells stimulated with the peptide; mean of triplicates
Method: Co-culture with a BALB/c-derived ALK+tumor cell line (VAC) was carried out as described above. Apoptosis of tumor cells was measured by evaluating Annexin-V binding by FACS.

[6] = tested on: R113 tumor cells; test: Killing of R113 tumor cells by NKT cells stimulated with ALK peptide (Annexin V binding); format: cell-based, C57BL/6 mice; details: 20 h co-culture with NKT cells stimulated with the peptide
Method: CD4 T cells (C57BL/6, H-2b background) obtained from the spleen of naive mice were stimulated four times with autologous dendritic cells loaded with a CD1d-restricted NKT cell epitope of ALK, to which a thioreductase motif of the C-XX-C (SEQ ID NO: 14) format was added within flanking residues. (Peptide of CHGCGGWLQIVTWWGPGS (SEQ ID NO: 5) (with thioreductase motif underlined and 2 glycines used as linker between the motif and the CD1d-restricted epitope)).
As NKT cells have per se a cytolytic activity, we included cells which were stimulated in parallel experiments by exposure to the same CD1d-restricted NKT epitope in natural sequence, without thioredox motif (WLQIVTWWGPGS) (SEQ ID NO: 9).
Ten days after the last stimulation, CD4 T cells were washed and added to cell culture microplates containing 104 Rl13 tum or cells at a 2 to 1 ratio (CD4 to tum or cells). Rl13 is a tumor B cell line obtained from C57BL/6 mice, which constitutively expresses ALK.
After 20 h of co-culture, Rl13 tumor cells were evaluated for Annexin V binding used as marker of cell apoptosis.

[7] = tested on: Ad5 viral particles; test: Anti-Ad5 IgG antibody response after peptide immunization and Ad5 injection (direct binding ELISA); format: in vivo, C57BL/6 mice; details: four sc injections of 50 μg peptide in alum, then 2 IV Ad5 injections; serum 10 days after last Ad5 injection
Method: C57BL/6 mice (n=6) were immunized by four subcutaneous injections of 50 μg of peptide of SEQ ID NO: 2 in alum carried out at one-week interval.
Such peptide contains a CD1d-restricted NKT cell epitope of hex on protein of adenovirus (Ad5) and a thioreductase motif in flanking residues. A control group (n=6) of mice received physiological serum in alum instead of peptide. All mice then received 2 injections of 109 Ad5 viral particles by the IV route, separated by I week. Ten days after the last Ad5 injection, mice were bled and the concentration of total IgG antibodies to Ad5 particles was measured in a direct binding ELISA Briefly, Ad5 viral particles were insolubilized on polystyrene plates, followed by washing and incubation with a dilution of mouse serum. After a second washing, the binding of mouse anti-Ad5 antibodies was detected by addition of a goat antiserum to mouse IgG. […] Results are given in arbitrary units as means+SEM.

[8] = tested on: NOD mice; test: Prevention of spontaneous insulin-dependent diabetes in NOD mice with GAD65 derived peptides; format: in vivo; details: female NOD mice, 4 sc injections from the age of 4 weeks
Excerpt: GAD65 contains amino acid sequences with the capacity to bind to CD1d. Thus, the sequence PQHTNVCFWFV (SEQ ID NO: 11), corresponding to amino acids 501 to 507 of GAD65, is produced by synthesis, as well as its counterpart encompassing a thioreductase motif within flanking residues: peptide of CHGCGGHTNVCFWFV (SEQ ID NO: 7) (with the thioreductase motif underlined and a linker of 2 glycines between the motif and the CD1d binding motif).
Female NOD mice are immunized from the age of 4 weeks by 4 subcutaneous injections of peptides of either SEQ ID7 or natural sequence, and glycaemia is followed in each of these groups, by comparison to a non-immunized group.

Substance: CHGCGGFLRVPCWKI [SEQ ID6, thioreductase-containing MOG peptide]
- signs of EAE [1]: do not develop EAE

Substance: CGH CGG FTN MFA TWS PSK (CGHCGGFTNMFATWSPSK) [peptide 2196]
- reduction in the production of IFN-gamma by Factor VIII specific CD4+ T cells [2]: 7 fold
- reduction of IL-4 production by Factor VIII specific CD4+ T cells [2]: 10 fold

Substance: CGH CGG FDKLPGF (CGHCGGFDKLPGF) [SEQ ID3]
- apoptosis of EG7 tumor cells [3]: are induced into apoptosis

Substance: CGPCGGFSGVAATES [SEQ ID8]
- airway reactivity to inhalation of methacholine [4]: do not develop airway reactivity to inhalation of methacholine
- lung infiltration with eosinophils [4]: do not show lung infiltration with eosinophils

Substance: CHGCGGWLQIVTWWGPGS [peptide of sequence 1]
- tumor cell death (Annexin-V binding) [5]: 25%
- increase in tumor cell death as compared to tumor cells cultured alone [6]: 4.5 fold
- tumor cell death (Annexin V binding) ([6]; 2 to 1 ratio, mean of triplicates): 18%

Substance: CHG CGG FIGLMYY (CHGCGGFIGLMYY) [SEQ ID NO: 2]
- total IgG antibodies to Ad5 particles [7]: did not produce significant amounts of antibodies

Substance: PQHTNVCFWFV [SEQ ID NO: 11, reference compound]
- glycaemia [8]: develop hyperglycaemia starting after the 14th week

Substance: CHGCGGHTNVCFWFV [SEQ ID7]
- glycaemia [8]: prevented from hyperglycaemia

Reference: patent US11193114B2, “Immunogenic peptides for use in the prevention and/or treatment of infectious diseases, autoimmune diseases, immune responses to allofactors, allergic diseases, tumors, graft rejection and immune responses against viral vectors used for gene therapy or gene vaccination” (IMNATE SARL, priority 2010, dated 2021)
